Measured values: patent US20150291598A1 (NOVARTIS AG, priority 2012, published 2015)

System: P. falciparum (NF54 or 3D7 strain)
Test: Assay for P. falciparum proliferation in infected human blood cells (SYBR Green)
Type: cell-based, Plasmodium falciparum
Settings: Plasmodium falciparum, Erythrocyte, 72 h, NF54 or 3D7 infected human erythrocytes, 72 hours; read-out: EC50 (nM), inhibitory efficacy in delaying P. falciparum proliferation in infected human blood cells
Method: Assay for P. falciparum Proliferation in Infected Human Blood Cells
Compounds of the invention can be assayed to measure their capacity to inhibit proliferation of P. falciparum parasitemia in infected red blood cells. This parasite proliferation assay measures the increase in parasite DNA content using a DNA intercalating dye, SYBR Green® (INVITROGEN®) which has a high affinity for double stranded DNA.
NF54 or 3D7 P. falciparum strain is grown in complete culturing media until parasitemia reaches 3% to 8% with O+ human erythrocytes. […] 20 μl of screening media is dispensed into 384 well assay plates. 50 nl of compounds of the invention (in DMSO), including antimalarial controls (mefloquine, pyrimethamine and artemisinin), are then transferred into the assay plates, as well as DMSO alone to serve as a negative control for inhibition. Then 30 μl of a suspension of a NF54 or 3D7 P. falciparum infected erythrocytes in screening media is dispensed into the assay plates such that the final hematocrit is 2.5% with a final parasitemia of 0.3%. The plates are placed in a 37° C. incubator for 72 hours in a low oxygen environment containing 93% N2, 4% CO2, and 3% O2 gas mixture. 10 μl of lysis buffer (saponin, triton-X, EDTA) containing a 10× solution of SYBR Green I® in RPMI media is dispensed into the plates. The plates are lidded and kept at room temperature overnight for the lysis of the infected red blood cells. The fluorescence intensity is measured (excitation […], emission 530 nm) using the Envision™ system (Perkin Elmer).

First: Cc1ccc(N(C)Cc2cn3c(-c4ccc(C(N)=O)cc4)cnc3cn2)nc1 [Compound 233, 4-(6-{[methyl(5-methylpyridin-2-yl)amino]methyl}imidazo[1,2-a]pyrazin-3-yl)benzamide]
Second: Cc1ccc(N(C)Cc2cn3c(-c4ccc(-c5ccn[nH]5)cc4)cnc3cn2)nc1 [Compound 47, N,5-dimethyl-N-({3-[4-(1H-pyrazol-5-yl)phenyl]imidazo[1,2-a]pyrazin-6-yl}methyl)pyridin-2-amine]
The EC50 of the first is 9-fold lower: 138 nM for the first, 1240 nM for the second.

First: CN(C(=O)c1cn2c(-c3ccc(C(F)(F)F)cc3)cnc2cn1)c1ccccc1Cl [Compound 73, N-(2-chlorophenyl)-N-methyl-3-[4-(trifluoromethyl)phenyl]imidazo[1,2-a]pyrazine-6-carboxamide]
Second: COc1ccccc1N(C)C(=O)c1cn2c(-c3ccc(C(F)(F)F)cc3)cnc2cn1 [Compound 110, N-(2-methoxyphenyl)-N-methyl-3-[4-(trifluoromethyl)phenyl]imidazo[1,2-a]pyrazine-6-carboxamide]
The EC50 of the first is 3.3-fold higher: 624 nM for the first, 188 nM for the second. The second is the more potent here.

Going from CN(C(=O)c1cn2c(-c3ccc(OCCN)cc3)cnc2cn1)c1ccc(C#N)cc1 [Compound 372, 3-[4-(2-aminoethoxyl)phenyl]-N-(4-cyanophenyl)-N-methylimidazo[1,2-a]pyrazine-6-carboxamide] to COc1ccc(-c2cnc3cnc(C(=O)N(C)c4ccc(C#N)cc4)cn23)cc1 [Compound 67, N-(4-cyanophenyl)-3-(4-methoxyphenyl)-N-methylimidazo[1,2-a]pyrazine-6-carboxamide], the EC50 falls from > 10000 nM to 168 nM.

Going from CN(C(=O)c1cn2c(-c3ccc(C#N)cc3)cnc2cn1)c1ccc(C(F)(F)F)cc1 [Compound 369, 3-(4-cyanophenyl)-N-methyl-N-[4-(trifluoromethyl)phenyl]imidazo[1,2-a]pyrazine-6-carboxamide] to CN(C(=O)c1cn2c(-c3ccc(C(F)F)cc3)cnc2cn1)c1ccc(C#N)cc1 [Compound 57, N-(4-cyanophenyl)-3-[4-(difluoromethyl)phenyl]-N-methylimidazo[1,2-a]pyrazine-6-carboxamide], the EC50 falls from 1160 nM to 70 nM (17-fold). The second is the more potent here.

Compared with CN(C(=O)c1cn2c(-c3cc4ccccc4[nH]3)cnc2cn1)c1ccc(Cl)nc1 [Compound 387, N-(6-chloropyridin-3-yl)-3-(1H-indol-2-yl)-N-methylimidazo[1,2-a]pyrazine-6-carboxamide], CN(C(=O)c1cn2c(-c3ccc(OC(F)F)cc3)cnc2cn1)c1ccc(Cl)nc1 [Compound 429, N-(6-chloropyridin-3-yl)-3-[4-(difluoromethoxy)phenyl]-N-methylimidazo[1,2-a]pyrazine-6-carboxamide] is lower in EC50: > 10000 nM for the first, 313 nM for the second. The second is the more potent here.

Compared with COc1ccc(-c2cnc3cnc(C(=O)N(C)c4ccc(Cl)cc4)cn23)cc1 [Compound 219, N-(4-chlorophenyl)-3-(4-methoxyphenyl)-N-methylimidazo[1,2-a]pyrazine-6-carboxamide], CN(C)c1ccc(-c2cnc3cnc(C(=O)N(C)c4ccc(Cl)cc4)cn23)cc1 [Compound 122, N-(4-chlorophenyl)-3-[4-(dimethylamino)phenyl]-N-methylimidazo[1,2-a]pyrazine-6-carboxamide] is 4.2-fold higher in EC50: 63 nM for the first, 266 nM for the second.

Compared with O=C(c1cn2c(-c3ccc(C(F)(F)F)cc3)cnc2cn1)N1CCOCC1 [Compound 374, 4-({3-[4-(trifluoromethyl)phenyl]imidazo[1,2-a]pyrazin-6-yl}carbonyl)morpholine], O=C(c1cn2c(-c3ccc(C(F)(F)F)cc3)cnc2cn1)N1CCS(=O)(=O)c2ccccc21 [Compound 494, (1,1-dioxido-2H-benzo[b][1,4]thiazin-4(3H)-yl)(3-(4-(trifluoromethyl)phenyl)imidazo[1,2-a]pyrazin-6-yl)methanone] is lower in EC50: > 9820 nM for the first, 3350 nM for the second.

Compared with CN(Cc1cn2c(-c3ccc(-c4ccn[nH]4)cc3)cnc2cn1)c1ccc(C#N)cc1 [Compound 2, 4-(((3-(4-(1H-pyrazol-5-yl)phenyl)imidazo[1,2-a]pyrazin-6-yl)methyl)(methyl)amino)benzonitrile], CN(Cc1cn2c(-c3ccc(-c4ccn[nH]4)cc3)cnc2cn1)c1ccc(Cl)cc1 [Compound 5, N-((3-(4-(1H-pyrazol-5-yl)phenyl)imidazo[1,2-a]pyrazin-6-yl)methyl)-4-chloro-N-methylaniline] is 3.6-fold higher in EC50: 66 nM for the first, 238 nM for the second.

Going from CN(C(=O)c1cn2c(C(=O)Nc3ccc(C(F)(F)F)cc3)cnc2cn1)c1ccc(Cl)nc1 [Compound 403, 6-N-(6-chloropyridin-3-yl)-6-N-methyl-3-N-[4-(trifluoromethyl)phenyl]imidazo[1,2-a]pyrazine-3,6-dicarboxamide] to CN(C(=O)c1cn2c(-c3ccc(C(F)(F)F)cc3)cnc2cn1)c1cccnc1 [Compound 326, N-methyl-N-(pyridin-3-yl)-3-[4-(trifluoromethyl)phenyl]imidazo[1,2-a]pyrazine-6-carboxamide], the EC50 falls from > 5980 nM to 2090 nM.

CC(C)S(=O)(=O)c1ccc(-c2cnc3cnc(C(=O)N(C)c4ccc(C#N)cc4)cn23)cc1 [Compound 152, N-(4-cyanophenyl)-N-methyl-3-[4-(propane-2-sulfonyl)phenyl]imidazo[1,2-a]pyrazine-6-carboxamide] and CN(C(=O)c1cn2c(-c3ccc(C#N)cc3)cnc2cn1)c1ccc(S(C)(=O)=O)cc1 [Compound 232, 3-(4-cyanophenyl)-N-(4-methanesulfonylphenyl)-N-methylimidazo[1,2-a]pyrazine-6-carboxamide] are within 1.5-fold of each other in EC50: 3170 nM for the first, 3990 nM for the second.

First: CN(C(=O)c1cn2c(-c3ccc(C(F)(F)F)cc3)cnc2cn1)c1cccc2nncn12 [Compound 416, N-methyl-N-{[1,2,4]triazolo[4,3-a]pyridin-5-yl}-3-[4-(trifluoromethyl)phenyl]imidazo[1,2-a]pyrazine-6-carboxamide]
Second: COc1ccc(N(C)C(=O)c2cn3c(-c4ccc(C(F)(F)F)cc4)cnc3cn2)nc1 [Compound 353, N-(5-methoxypyridin-2-yl)-N-methyl-3-[4-(trifluoromethyl)phenyl]imidazo[1,2-a]pyrazine-6-carboxamide]
The EC50 of the first is higher: > 10000 nM for the first, 3900 nM for the second.

Going from CN(C(=O)c1cn2c(-c3ccc(C(N)=O)nc3)cnc2cn1)c1ccc(C#N)cc1 [Compound 393, 5-{6-[(4-cyanophenyl)(methyl)carbamoyl]imidazo[1,2-a]pyrazin-3-yl}pyridine-2-carboxamide] to CN(C(=O)c1cn2c(-c3ccc(CN)cc3)cnc2cn1)c1ccc(C#N)cc1 [Compound 186, 3-[4-(aminomethyl)phenyl]-N-(4-cyanophenyl)-N-methylimidazo[1,2-a]pyrazine-6-carboxamide], the EC50 rises from 3940 nM to 9170 nM (2.3-fold). The first is the more potent here.

Compared with CC(C)[C@H](N)C(=O)Nc1ccc(-c2cnc3cnc(C(=O)N(C)c4ccc(C#N)cc4)cn23)cc1 [Compound 266, 3-{4-[(2S)-2-amino-3-methylbutanamido]phenyl}-N-(4-cyanophenyl)-N-methylimidazo[1,2-a]pyrazine-6-carboxamide], CCOC(=O)Nc1ccc(-c2cnc3cnc(C(=O)N(C)c4ccc(C#N)cc4)cn23)cc1 [Compound 254, ethyl N-(4-{6-[(4-cyanophenyl)(methyl)carbamoyl]imidazo[1,2-a]pyrazin-3-yl}phenyl)carbamate] is 3.5-fold lower in EC50: 234 nM for the first, 67 nM for the second.

Compared with COc1cccc(-c2cnc3cnc(C(=O)N(C)c4ccc(C#N)cc4)cn23)c1 [Compound 48, N-(4-cyanophenyl)-3-(3-methoxyphenyl)-N-methylimidazo[1,2-a]pyrazine-6-carboxamide], CN(C(=O)c1cn2c(-c3cccc(-c4cn[nH]c4)c3)cnc2cn1)c1ccc(C#N)cc1 [Compound 46, N-(4-cyanophenyl)-N-methyl-3-[3-(1H-pyrazol-4-yl)phenyl]imidazo[1,2-a]pyrazine-6-carboxamide] is higher in EC50: 5100 nM for the first, > 10000 nM for the second.

Compared with CN(C(=O)c1cn2c(-c3cnc4[nH]ccc4c3)cnc2cn1)c1ccc(C#N)cc1 [Compound 243, N-(4-cyanophenyl)-N-methyl-3-{1H-pyrrolo[2,3-b]pyridin-5-yl}imidazo[1,2-a]pyrazine-6-carboxamide], CC(C)S(=O)(=O)Nc1ccc(-c2cnc3cnc(C(=O)N(C)c4ccc(C#N)cc4)cn23)cc1 [Compound 363, N-(4-cyanophenyl)-N-methyl-3-[4-(propane-2-sulfonamido)phenyl]imidazo[1,2-a]pyrazine-6-carboxamide] is 72-fold higher in EC50: 98 nM for the first, 7020 nM for the second.

Going from CC(C)Oc1ccc(N(C)C(=O)c2cn3c(-c4ccc(C(F)(F)F)cc4)cnc3cn2)cc1 [Compound 436, N-methyl-N-[4-(propan-2-yloxy)phenyl]-3-[4-(trifluoromethyl)phenyl]imidazo[1,2-a]pyrazine-6-carboxamide] to COc1ccc(-c2ccc(N(C)C(=O)c3cn4c(-c5ccc(OC)cc5C)cnc4cn3)cn2)c(C)c1 [Compound 302, 3-(4-methoxy-2-methylphenyl)-N-[6-(4-methoxy-2-methylphenyl)pyridin-3-yl]-N-methylimidazo[1,2-a]pyrazine-6-carboxamide], the EC50 falls from 9300 nM to 1850 nM (5-fold). The second is the more potent here.

In the case of COC(=O)Nc1ccc(-c2cnc3cnc(C(=O)N(C)c4ccc(C)cn4)cn23)cn1 [Compound 415, methyl N-(5-{6-[methyl(5-methylpyridin-2-yl)carbamoyl]imidazo[1,2-a]pyrazin-3-yl}pyridin-2-yl)carbamate], the EC50 is reported as > 10000 nM.

Same assay, conditions: Plasmodium falciparum, Erythrocyte, infected human red blood cells; read-out: EC50, P. falciparum Proliferation Assay

For Cc1ccc(N(C)Cc2cn3c(-c4ccc(-c5ccn[nH]5)cc4)cnc3cn2)nc1 [Compound 47, N,5-dimethyl-N-({3-[4-(1H-pyrazol-5-yl)phenyl]imidazo[1,2-a]pyrazin-6-yl}methyl)pyridin-2-amine], the EC50 was < 50 nM.
